The conditions of series [1]: cited from earlier work; for λem: as indicated on www.gelifesciences.com.
Series [2] in a line: Photostability (dye photobleaching under irradiation). The settings on record: for photobleached: after 60 minutes of irradiation at 620 nm, PBS pH 7.0, absorbance matched (FIG. 4); for photobleaching: irradiated for an hour at 620 nm, PBS pH 7.0, A620 nm<0.1 (FIG. 7). The series is classed as physicochemical. The method, then:
Photostability data were collected on a Horiba Jobin Yvon Fluorolog-3 spectrofluorometer (Edison, N.Y.) equipped with a 450 W xenon lamp (Ushio inc. Japan). Dye photobleaching was observed by monitoring the fluorescence emission of absorbance matched dye samples (absorbance <0.1) at an excitation wavelength 620 nm for 60 minutes. […] Thus, CyAm-5 acid has 28% better photostability than Cy5.
Dye samples with the same absorption (A620 nm<0.1) were irradiated for an hour at 620 nm. Both bio-conjugatable new dyes, CyAm-5 acid and CycloCyAm-5 acid with photobleaching of 30% and 12%, respectively, were more photostable than Cy5 (45%).

For series [3] the following is noted: as indicated on www.gelifesciences.com; cited from earlier work.
Series [4] can be described thus: Emission spectra and fluorescence quantum yield. Format: physicochemical. The settings on record: PBS, pH 7.0. As for the experimental part:
Emission spectra were collected on a Varian Cary Eclipse fluorescence spectrophotometer. Quantum yield measurements were performed on at least eight trails for each dye derivative with maximum absorption for each sample less than 0.1, using Cy5 as a standard (Φ=0.27) (Mujumdar, R. B., Ernst, L. A., Mujumdar, S. R., Lewis, C. J., and Waggoner, A. S. (1993) Cyanine dye labeling reagents: sulfoindocyanine succinimidyl esters. Bioconjug. Chem. 4, 105-11). The standard deviation for both the extinction coefficient and quantum yield measurements is less than 5%.
(§1) FIG. 9 summarizes the optical properties of CyAl-5 and CyAl-5.5. Spectra were obtained in phosphate buffered solution, pH 7.0. The extinction coefficients, at the dye absorption maxima, were performed in triplicate. Emission spectra were excited at 620 nm for CyAl-5 and 640 nm for CyAl-5.5. CyAl-5 and CyAl-5.5, Cy5 and Cy5.5 were used as fluorescence standards, respectively. The data are the average of at least 8 replicates and errors were <5%.

Series [5] is described as follows: Absorption spectra and extinction coefficients of the fluorophores. Format: physicochemical. The settings on record: PBS, pH 7.0. As for the experimental part: Absorption spectra and extinction coefficients of the fluorophores were obtained on a Varian Cary 50-Bio UV-visible spectrophotometer. Extinction coefficients were measured in phosphate-buffered saline (PBS), 10 mM phosphate buffer pH 7.0, […] potassium chloride and 137 mM sodium chloride and were averaged over at least three sets of parallel experiments. For each trail, 2-3 mg of the HPLC-purified dyes were weighed on a Mettler AT201 analytical balance with an error of ±0.01 mg and were dissolved in deionized water using a 10 mL volumetric flask to prepare the stock solutions.
as §1

For a further series, the system named is CHO cells. In words: Fluorescence labeling and imaging of azido-sugar modified CHO cells by click reaction. The settings on record: fixed CHO cells. The series is classed as cell-based, Chinese hamster. As for the experimental part: Chinese hamster ovary (CHO) cells were maintained in a 5% CO2, water-saturated atmosphere and grown in F12 HAMS medium supplemented with 10% FBS, 1% penstrep and 1% L-glutamine. For biolabeling experiments, the cells were incubated for 2-3 days in the regular medium or medium supplemented with 100 μM Ac4ManNAc (Molecular probes) in an eight-well LabTek II chamber slide (Nunc). The medium was gently aspirated, and the cells were fixed at −20° C. by methanol for 10 min and then acetone for 1 min. […] Fluorescent images were captured on a Nikon Eclipse TE2000-S fluorescence microscope with 40× objective equipped with a Photometrics Cascade 512B CCD camera using excitation and emission filters from Chroma Technology. […]
Cells incubated with azido-sugar supplemented media (top) or unsupplimented media (bottom) are presented after treatment with CyAm-5 alkyne in the presence of Cu(I)/TBTA as catalyst. Cell nuclei stained with DAPI colored blue (left), fluorescence signal from CyAm-5 alkyne colored red (center) and the merged images (right) are shown. […]
FIGS. 6A-6B show fluorescent imaging of CHO cells labeled with CyAm-5 alkyne and controls. […] Cell nuclei stained with DAPI, fluorescence of labeled CyAm-5 alkyne and merge figures of the two above are shown in column left, middle and right, respectively. […]

In the case of `CCN1/C(=C/C=C/C=C/C2=[N+](CCCCCC(=O)O)c3ccc(S(=O)(=O)O)cc3C2(C)C)C(C)(C)c2cc(S(=O)(=O)[O-])ccc21` [Cy5], the “quantum yield of standard (Φ)” value in series [1] (Cy5 used as standard, literature value) is given as 0.27. The λem in series [1] was 664 nm. Further, in series [2], the photobleached was determined as 54% and the photobleaching came to 45%. For the same compound, the λabs in series [3] is recorded as 646 nm.
For `CCN1/C(=C/C=C(/C=C/C2=[N+](CC)c3ccc(S(=O)(=O)O)cc3C2(C)C)CCC(=O)Nc2ccc(C(=O)O)cc2)C(C)(C)c2cc(S(=O)(=O)O)ccc21` [CyAm-5 acid], in series [2], the photobleached is given as 42% and the photobleaching is 30%. Besides, the “better photostability / less photobleaching compared to Cy5” value in series [2] (after an hour irradiation at 620 nm (FIG. 4)) is 28%. In series [4], the emission maximum worked out at 658 nm. In series [5], this compound displayed an absorption maximum of 642 nm.
`C#Cc1cccc(NC(=O)CCC(/C=C/C2=[N+](CC)c3ccc(S(=O)(=O)O)cc3C2(C)C)=C\C=C2\N(CC)c3ccc(S(=O)(=O)O)cc3C2(C)C)c1` [CyAm-5 alkyne]: the “fluorescence signal of cells bearing azido sialic acid versus control cells” value in the series with CHO cells (20 μM dye, Cu(I) catalyst (FIG. 5)) is recorded as “increased fluorescence signal”. For the same compound, the “conditions under which enhancement of fluorescence signal is observed” value with CHO cells (with or without Cu(I), TBTA, azido-sugar (FIG. 6A-B)) is “only observed in the presence of both catalyst Cu(I) and azido glycans”.
Take `CC1(C)C2=C(/C=C(/C=C3\CCC[N+]4=C3C(C)(C)c3cc(S(=O)(=O)O)ccc34)CCC(=O)Nc3ccc(C(=O)O)cc3)CCCN2c2ccc(S(=O)(=O)O)cc21` [CycloCyAm-5 acid]: the photobleaching in series [2] is 12%.
Take Cy5.5: the λem in series [1] was 693 nm. Moreover, the λabs in series [3] is reported as 673 nm.
